Legend:
[1] = target: T1, mOat1 (Mus musculus, UniProt Q8VC69); assay: Inhibition of mOat1-mediated [3H]PAH uptake in CHO-mOat1 cells (cell accumulation assay); type: cell-based, murine; conditions: for Estimated α value from mixed inhibition model analysis, mOat1: 5 μM PAH for 2 min, mean, α > 1 indicates competitive inhibition; for Ki / inhibition at 1000 µM: 5 μM [3H]PAH; for Ki: 2 min, CHO-mOat1, mean ± S.E.M. (n = 3), from IC50 via Cheng-Prusoff, read-out: Estimated K i for mOat1-mediated transport; for inhibition at 1000 µM: 1 mM (1000 μM) inhibitor, 10 min, CHO-mOat1 cells, read-out: inhibition of mOat1-mediated PAH uptake; for mode of inhibition of mOat1-mediated transport: mixed inhibition model, PAH substrate; for K i ratio (mOat1/mOat3): ratio of Ki on mOat1 to Ki on mOat3
T1 construct: expressed in transfected cells; host or cells: CHO (Chinese hamster ovary), stably transfected (CHO-mOat1)
T1 sequence (Q8VC69 1-545): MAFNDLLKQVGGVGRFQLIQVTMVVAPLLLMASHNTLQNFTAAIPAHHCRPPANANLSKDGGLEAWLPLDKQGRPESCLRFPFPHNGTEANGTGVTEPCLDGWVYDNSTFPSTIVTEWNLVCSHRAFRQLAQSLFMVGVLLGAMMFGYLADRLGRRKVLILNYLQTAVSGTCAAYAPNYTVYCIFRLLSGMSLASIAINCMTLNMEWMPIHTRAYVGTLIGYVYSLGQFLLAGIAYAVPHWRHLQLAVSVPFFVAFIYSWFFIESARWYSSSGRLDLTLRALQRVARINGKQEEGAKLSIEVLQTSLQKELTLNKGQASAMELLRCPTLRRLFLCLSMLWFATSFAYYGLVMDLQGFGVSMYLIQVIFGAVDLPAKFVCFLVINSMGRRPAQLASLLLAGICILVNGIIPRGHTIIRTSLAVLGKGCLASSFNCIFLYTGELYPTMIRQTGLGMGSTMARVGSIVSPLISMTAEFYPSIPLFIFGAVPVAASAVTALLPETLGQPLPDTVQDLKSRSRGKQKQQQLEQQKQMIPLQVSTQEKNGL
Procedure: Derivation of the stably transfected Chinese hamster ovary (CHO) cell lines expressing mOat1 (CHO-mOat1), mOat3 (CHO-mOat3), and the empty vector (FRT) transfected control cell line (CHO-FRT) was described previously.
Cell transport assay procedures were adapted from those previously published. In brief, 2 × 10^5 cells/well were seeded in 24-well tissue culture plates and grown in the absence of antibiotics for 48 hr. On the day of the experiment, cells were equilibrated with transport buffer for 10 min (500 μL of Hanks' balanced salt solution containing 10 mM HEPES, pH 7.4). […] After incubation, cells were immediately rinsed three times with ice-cold transport buffer, lysed, and analyzed via liquid scintillation counting. Uptake values were normalized to corresponding total protein content in cell lysates as determined by the Bradford method. Substrate accumulation is reported as picomoles of substrate per milligram protein. […] Kinetic calculations were performed using GraphPad Prism Software version 5.0 (GraphPad Software Inc., San Diego, CA, USA). Michaelis constant (K m) values were calculated by nonlinear regression using the Michaelis-Menten model. […] In this study, three curves were constructed (no inhibitor, plus two selected inhibitor concentrations) with uptake of substrate plotted as a function of its concentration for each condition. […] The parameter, α, can then be used to determine the mode of inhibition. When α is very large (α > 1), it indicates competitive inhibition. […] Results were confirmed by repeating all experiments at least three times with triplicate wells for each data point in every experiment.
Figure 3 Michaelis-Menten kinetics of PAH transport in CHO-mOat1 cells. In order to calculate K i values for mOat1, the K m value for PAH needed to be determined in the CHO-mOat1 cell system. […] The corrected curve (closed circles) was obtained by subtracting the nonspecific background uptake as measured in the CHO-FRT cells from CHO-mOat1 accumulation to allow analysis of mOat1-mediated activity. Experiments were repeated three times in triplicate, and Michaelis constant (K m) values were calculated by nonlinear regression using the Michaelis-Menten model. […] Graph shown is from a representative experiment with values plotted as mean ± S.D. (n = 3).
Figure 2 Inhibition profile of mOat1 and mOat3. […] (b) Inhibition of mOat3-mediated uptake of [^3H]ES (1 μM) by LSA, PCA, RMA, SAA, SAB, TSL, and probenecid (1000 μM) was measured in the CHO-mOat3 cells (10 min). […] Values are mean ± S.D. of triplicate values. ***denotes P < 0.001 as determined by one-way ANOVA followed by Dunnett's t-test.
Figure 4 K i determination for LSA, RMA, and SAA in the CHO-mOat1 cell line. […] (5 μM) in CHO-mOat1 cells was measured in the presence of increasing concentrations (10^−7 to 5 × 10^−4 M) of LSA, RMA, and SAA. Data were corrected for nonspecific background measured in the CHO-FRT cells prior to kinetic analysis. K i values were determined with non-linear regression and the “one-site competition” model using GraphPad Prism software. Graphs shown are from representative experiments with values plotted as mean ± S.D. (n = 3).

[2] = design: method as in PMID 15866491; conditions: healthy humans, i.v. dosing of a Danshen product; cited from earlier work
[3] = rats, cited from earlier work
[4] = rat plasma; cited from earlier work

Row | Estimated α value from mixed inhibition model analysis, mOat1 [1] | Ki [1] [µM] | inhibition at 1000 µM [1] [%] | mode of inhibition of mOat1-mediated transport [1] | K i ratio (mOat1/mOat3) [1] | SMILES | Cmax [2] [µM] | increase of AUC on spiking additional SAA into Danshen preparations [3] [%] | reduction of clearance on spiking additional SAA into Danshen preparations [3] [%] | unbound renal clearance relative to glomerular filtration rate ([3]; fold greater than the glomerular filtration rate) | plasma protein binding [4] [%]
1 | 6.7 × 10^11 | 14.9 ± 4.9 | 70 to 85 | competitive | 0.48 | O=C(/C=C/c1ccc(O)c2c1[C@H](C(=O)O)[C@@H](c1ccc(O)c(O)c1)O2)O[C@H](Cc1ccc(O)c(O)c1)C(=O)O [LSA, lithospermic acid] | 2.1 | – | – | – | –
2 | 1.3 × 10^12 | 5.5 ± 2.2 | > 95 | competitive | 1.29 | O=C(/C=C/c1ccc(O)c(O)c1)O[C@H](Cc1ccc(O)c(O)c1)C(=O)O [RMA, rosmarinic acid] | 6.7 | – | – | – | –
3 | 2.6 × 10^14 | 4.9 ± 2.2 | > 95 | competitive | 0.23 | O=C(/C=C/c1ccc(O)c(O)c1/C=C/c1ccc(O)c(O)c1)O[C@H](Cc1ccc(O)c(O)c1)C(=O)O [SAA, salvianolic acid A] | – | – | – | – | –

Row | SMILES | Estimated α value from mixed inhibition model analysis, mOat1 [1] | Ki [1] [µM] | inhibition at 1000 µM [1] [%] | mode of inhibition of mOat1-mediated transport [1] | K i ratio (mOat1/mOat3) [1] | Cmax [2] [µM] | increase of AUC on spiking additional SAA into Danshen preparations [3] [%] | reduction of clearance on spiking additional SAA into Danshen preparations [3] [%] | unbound renal clearance relative to glomerular filtration rate ([3]; fold greater than the glomerular filtration rate) | plasma protein binding [4] [%]
4 | O=C(O)C(O)Cc1ccc(O)c(O)c1 (stereo not shown) [TSL, tanshinol] | – | – | 70 to 85 | – | – | – | 26.7 | 32.9 | ~ 5 X | 25

Reference: paper PMC3403540, “Active Hydrophilic Components of the Medicinal Herb Salvia miltiorrhiza (Danshen) Potently Inhibit Organic Anion Transporters 1 (Slc22a6) and 3 (Slc22a8)” (Evidence-based Complementary and Alternative Medicine : eCAM, 2012)
